Molecular target: T1, Saccharomyces cerevisiae saccharopine dehydrogenase (SDH) (Saccharomyces cerevisiae, UniProt P38998)
T1 construct: gene LYS1; SDH coding gene in pET30a, Ni-NTA purified, expressed in E. coli BL21(DE3), about 41 kDa
Test: NADH oxidation, A340 endpoint
Type: biochemical
Details: 200 mM Tris pH 8.0, 600 μM NADH, α-ketoglutarate, room temperature, 15 min

T1 sequence (P38998 2-373): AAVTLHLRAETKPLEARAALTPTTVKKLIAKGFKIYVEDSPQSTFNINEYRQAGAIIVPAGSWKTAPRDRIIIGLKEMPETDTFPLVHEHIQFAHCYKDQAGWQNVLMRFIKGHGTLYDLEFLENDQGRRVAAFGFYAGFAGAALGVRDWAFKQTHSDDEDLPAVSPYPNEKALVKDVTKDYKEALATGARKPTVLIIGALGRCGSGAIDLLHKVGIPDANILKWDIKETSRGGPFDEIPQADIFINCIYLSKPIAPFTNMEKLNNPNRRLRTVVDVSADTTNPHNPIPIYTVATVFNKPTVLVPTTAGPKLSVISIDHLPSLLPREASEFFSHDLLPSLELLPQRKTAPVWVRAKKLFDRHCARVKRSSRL

SMILES | NADH oxidation, A340 endpoint
NCCCC[C@H](N)C(=O)O [L-lysine] | Activity of SDH as a function of the concentration of L-lysine

Molecular target: T2, Brucella melitensis DAPDC (diaminopimelate decarboxylase) (Brucella melitensis, UniProt Q8YJJ9)
T2 construct: gene lysA
T2 sequence (Q8YJJ9 1-421): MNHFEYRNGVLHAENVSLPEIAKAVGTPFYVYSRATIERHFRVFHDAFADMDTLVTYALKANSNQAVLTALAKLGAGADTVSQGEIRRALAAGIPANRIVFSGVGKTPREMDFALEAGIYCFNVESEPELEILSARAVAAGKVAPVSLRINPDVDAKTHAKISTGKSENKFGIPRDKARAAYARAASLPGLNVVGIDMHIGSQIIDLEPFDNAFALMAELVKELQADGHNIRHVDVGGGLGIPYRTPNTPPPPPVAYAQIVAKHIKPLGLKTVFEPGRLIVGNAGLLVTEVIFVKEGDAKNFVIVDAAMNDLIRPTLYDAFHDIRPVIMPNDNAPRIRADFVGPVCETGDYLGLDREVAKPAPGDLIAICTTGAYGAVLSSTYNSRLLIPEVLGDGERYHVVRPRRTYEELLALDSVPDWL
Test: not given
Details: 200 mM Tris-HCl pH 8.0, 4 mM α-ketoglutarate, 600 μM NADH, 0.1 mM PLP, excess SDH, DAP 0-20 mM, room temperature

SMILES | DAPDC-SDH coupled assay, NADH A340 endpoint
NC(CCCC(N)C(=O)O)C(=O)O (stereo not drawn) [DAP] | hyperbolic behavior of DAPDC activity as a function of DAP concentration

Molecular target: T2, Brucella melitensis DAPDC (diaminopimelate decarboxylase)
Test: not given
Details: 40 µM

SMILES | Inhibitory rate (%)
O.O.O=C([O-])CCNC(=O)c1ccc(N=Nc2ccc([O-])c(C(=O)O)c2)cc1.[Na+].[Na+] [SID8, S3745] | 54.83%
CC(C)(C)C(=O)Oc1ccc(S(=O)(=O)Nc2ccccc2C(=O)NCC(=O)[O-])cc1.O.O.O.O.[Na+] [SID9, S4666] | 52.88%

Molecular target: T2, Brucella melitensis DAPDC (diaminopimelate decarboxylase)
Test: biochemical
Details: read-out: Inhibitory rate (%)

SMILES | inhibition at 40 µM
CCN(CCO)CCCC(C)Nc1ccnc2cc(Cl)ccc12 (racemic) [SID6, S4430] | 56.1%
CC(NC(C)(C)C)C(=O)c1cccc(Cl)c1 (racemic) [SID13, S2452] | 47.7%
COc1cc(C2Oc3ccc(C4Oc5cc(O)cc(O)c5C(=O)C4O)cc3OC2CO)ccc1O (stereo not drawn) [SID1, S2357] | 70.3%
Nc1nc(=S)c2[nH]cnc2[nH]1 [SID2, S1774] | 68.7%
Cc1nc(Nc2ncc(C(=O)Nc3c(C)cccc3Cl)s2)cc(N2CCN(CCO)CC2)n1 [SID3, dasatinib monohydrate] | 67.1%
Cc1cccn2c(=O)c(-c3nn[nH]n3)cnc12 [SID5, S4008] | 63.1%
C[C@H]1COc2c(N3CCN(C)CC3)c(F)cc3c(=O)c(C(=O)O)cn1c23 [SID7, levofloxacin] | 55.3%
CC(=O)c1c(C)c2cnc(Nc3ccc(N4CCNCC4)cn3)nc2n(C2CCCC2)c1=O [SID10, S1579] | 52.1%
CO[C@H]1/C=C/O[C@@]2(C)Oc3c(C)c(O)c4c(O)c(c(/C=N/N5CCN(C)CC5)c(O)c4c3C2=O)NC(=O)/C(C)=C\C=C\[C@H](C)[C@H](O)[C@@H](C)[C@@H](O)[C@@H](C)[C@H](OC(C)=O)[C@@H]1C [SID11, rifampin] | 51.5%
CCC(=O)c1c(O)cc(O)cc1O [SID12, S4249] | 49.2%
CC(C)Nc1cc(-c2c[nH]c(C(=O)N[C@H](CO)c3cccc(Cl)c3)c2)c(Cl)cn1 [SID14, ulixertinib] | 47.3%
COc1ccc(-c2nc3ccc(C4=NNC(=O)CC4C)cc3[nH]2)cc1 (stereo not drawn) [SID15, pimobendan] | 46.8%
CC1COc2c(N3CCN(C)CC3)c(F)cc3c(=O)c(C(=O)O)cn1c23 (stereo not drawn) [SID16, S1940] | 46.7%
Cc1c(Cl)cccc1Nc1ccccc1C(=O)O [SID20, tolfenamic acid] | 44%

From article PMC6986272 (Frontiers in Microbiology, 2020)
